Measured values published in US9206200B2, “N-linked lactam M1 receptor positive allosteric mogulators” (Merck Sharp & Dohme Corp., priority 2011, dated 2015).

biological target: T1, acetylcholine muscarinic M1 receptor (Homo sapiens, UniProt P11229); assay: muscarinic FLIPR assay: intracellular calcium in CHOnfat/hM1 cells, potentiation of EC20 acetylcholine; type: cell-based; settings: Table 2; CHOnfat/hM1 cells, FLIPR, EC20 acetylcholine (3 nM final); read-out: M1 Pot.
T1 construct: expressed in transfected cells; host or cells: CHOnfat cells (CHO cells with an NFAT reporter) expressing hM1, kept under Geneticin selection
T1 sequence (P11229 1-460): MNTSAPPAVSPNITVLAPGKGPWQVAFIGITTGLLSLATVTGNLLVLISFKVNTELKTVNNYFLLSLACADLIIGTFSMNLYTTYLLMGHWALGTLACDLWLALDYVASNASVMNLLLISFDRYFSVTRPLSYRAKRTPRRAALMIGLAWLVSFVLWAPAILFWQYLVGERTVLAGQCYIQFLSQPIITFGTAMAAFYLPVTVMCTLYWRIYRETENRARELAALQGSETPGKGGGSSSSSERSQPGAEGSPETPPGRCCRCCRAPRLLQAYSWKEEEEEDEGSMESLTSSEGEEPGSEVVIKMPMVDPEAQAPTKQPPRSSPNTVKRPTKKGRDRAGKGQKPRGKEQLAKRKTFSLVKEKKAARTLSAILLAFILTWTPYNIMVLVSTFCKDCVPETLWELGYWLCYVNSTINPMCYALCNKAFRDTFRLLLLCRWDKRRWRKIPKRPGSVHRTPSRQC
How it was run: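 CHOnfat cells stably expressing human M1, Fluo-4AM-loaded, in HBSS with 20 mM HEPES, 2.5 mM probenecid, 1% BSA. Compounds preincubated 4 min (printed "4 mM") before an EC20 acetylcholine challenge (3 nM final). FLIPR intracellular Ca²⁺ signal compared with 3 nM acetylcholine alone to detect potentiation.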

First: O=C1c2cc(CN3CCC(F)(C#CC4CC4)CC3)c3cccnc3c2CN1[C@H]1CCCC[C@@H]1O [Example 132, 5-{[4-(cyclopropylethynyl)-4-fluoropiperidin-1-yl]methyl}-8-[(1S,2S)-2-hydroxycyclohexyl]-8,9-dihydro-7H-pyrrolo[3,4-h]quinolin-7-one]
Second: O=C1c2cc(CN3CCC(F)(C#Cc4ccc(F)cc4)CC3)c3cccnc3c2CN1C1CCCCC1O (stereo not shown) [Example 133, 5-({4-fluoro-4-[(4-fluorophenyl)ethynyl]piperidin-1-yl}methyl)-8-(2-hydroxycyclohexyl)-8,9-dihydro-7H-pyrrolo[3,4-h]quinolin-7-one]
The EC50 of the first is 1.9-fold higher: 246 nM for the first, 129 nM for the second.

Going from O=C1c2cc(CN3CCC(F)(Cc4ccccc4)CC3)c3cccnc3c2CN1C1CCCCC1O (stereo not shown) [Example 134, 5-[(4-benzyl-4-fluoropiperidin-1-yl)methyl]-8-(2-hydroxycyclohexyl)-8,9-dihydro-7H-pyrrolo[3,4-h]quinolin-7-one] to N#CC1(c2ccccc2)CCN(Cc2cc3c(c4ncccc24)CN([C@H]2CCCC[C@@H]2O)C3=O)CC1 [Example 136, 1-({8-[(1S,2S)-2-hydroxycyclohexyl]-7-oxo-8,9-dihydro-7H-pyrrolo[3,4-h]quinolin-5-yl}methyl)-4-phenylpiperidine-4-carbonitrile], the EC50 falls from 207 nM to 14 nM (15-fold). The second is the more potent here.

Going from N#CC1(Cc2ccncc2)CCN(Cc2cc3c(c4ncccc24)CN(C2CCCCC2O)C3=O)CC1 (stereo not shown) [Example 135, 1-{[8-(2-hydroxycyclohexyl)-7-oxo-8,9-dihydro-7H-pyrrolo[3,4-h]quinolin-5-yl]methyl}-4-(pyridin-4-ylmethyl)piperidine-4-carbonitrile] to O=C1c2cc(CN3CCC(O)(c4ccncc4)CC3)c3cccnc3c2CN1C1CCCCC1O (stereo not shown) [Example 144, 8-(2-hydroxycyclohexyl)-5-[(4-hydroxy-4-pyridin-4-ylpiperidin-1-yl)methyl]-8,9-dihydro-7H-pyrrolo[3,4-h]quinolin-7-one], the EC50 rises from 156 nM to 510 nM (3.3-fold). The first is the more potent here.

Going from CC1c2c(cc(CN3CCC(C#N)(c4ccccc4)CC3)c3cccnc23)C(=O)N1C1CCCCC1O (stereo not shown) [Example 137, 1-{[8-(2-hydroxycyclohexyl)-9-methyl-7-oxo-8,9-dihydro-7H-pyrrolo[3,4-h]quinolin-5-yl]methyl}-4-phenylpiperidine-4-carbonitrile] to CC1c2c(cc(CN3CCC(c4ccccc4)CC3)c3cccnc23)C(=O)N1C1CCCCC1O (stereo not shown) [Example 140, 8-(2-hydroxycyclohexyl)-9-methyl-5-[(4-phenylpiperidin-1-yl)methyl]-8,9-dihydro-7H-pyrrolo[3,4-h]quinolin-7-one], the EC50 rises from 480 nM to 3200 nM (6.7-fold). The first is the more potent here.

Compared with CC1c2c(cc(CN3CCC(C#N)(c4ccccc4)CC3)c3cccnc23)C(=O)N1C1CCCCC1O (stereo not shown) [Example 138, 1-{[8-(2-hydroxycyclohexyl)-9-methyl-7-oxo-8,9-dihydro-7H-pyrrolo[3,4-h]quinolin-5-yl]methyl}-4-phenylpiperidine-4-carbonitrile], CC1c2c(cc(CN3CCC(c4ccccc4)CC3)c3cccnc23)C(=O)N1C1CCCCC1O (stereo not shown) [Example 141, 8-(2-hydroxycyclohexyl)-9-methyl-5-[(4-phenylpiperidin-1-yl)methyl]-8,9-dihydro-7H-pyrrolo[3,4-h]quinolin-7-one] is 7.1-fold higher in EC50: 69 nM for the first, 490 nM for the second.

First: O=C1c2cc(CN3CCC(c4ccccc4)CC3)c3cccnc3c2CN1C1CCCCC1O (stereo not shown) [Example 139, 8-(2-hydroxycyclohexyl)-5-[(4-phenylpiperidin-1-yl)methyl]-8,9-dihydro-7H-pyrrolo[3,4-h]quinolin-7-one]
Second: O=C1c2cc(CN3CCC(c4ccncc4)CC3)c3cccnc3c2CN1C1CCCCC1O (stereo not shown) [Example 142, 8-(2-hydroxycyclohexyl)-5-[(4-pyridin-4-ylpiperidin-1-yl)methyl]-8,9-dihydro-7H-pyrrolo[3,4-h]quinolin-7-one]
The EC50 of the first is 1.7-fold higher: 85 nM for the first, 51 nM for the second. The second is the more potent here.

CC1c2c(cc(CN3CCC(c4ccncc4)CC3)c3cccnc23)C(=O)N1C1CCCCC1O (stereo not shown) [Example 143, 8-(2-hydroxycyclohexyl)-9-methyl-5-[(4-pyridin-4-ylpiperidin-1-yl)methyl]-8,9-dihydro-7H-pyrrolo[3,4-h]quinolin-7-one] and CC1c2c(cc(CN3CCC(F)(c4ccccn4)CC3)c3cccnc23)C(=O)N1[C@@H]1CCCC[C@@H]1O (stereo partly drawn) [Example 147, 5-[(4-fluoro-4-pyridin-2-ylpiperidin-1-yl)methyl]-8-[(1R,2S)-2-hydroxycyclohexyl]-9-methyl-8,9-dihydro-7H-pyrrolo[3,4-h]quinolin-7-one] are within 1.5-fold of each other in EC50: 89 nM for the first, 70 nM for the second.

N#CC1(c2ccccn2)CCN(Cc2cc3c(c4ncccc24)CN([C@H]2CCCC[C@@H]2O)C3=O)CC1 [Example 145, 1-({8-[(1S,2S)-2-hydroxycyclohexyl]-7-oxo-8,9-dihydro-7H-pyrrolo[3,4-h]quinolin-5-yl}methyl)-4-pyridin-2-ylpiperidine-4-carbonitrile] and O=C1c2cc(CN3CCC(F)(c4ccccn4)CC3)c3cccnc3c2CN1C1CCCCC1O (stereo not shown) [Example 146, 5-[(4-fluoro-4-pyridin-2-ylpiperidin-1-yl)methyl]-8-(2-hydroxycyclohexyl)-8,9-dihydro-7H-pyrrolo[3,4-h]quinolin-7-one] are within 1.5-fold of each other in EC50: 7.6 nM for the first, 11 nM for the second.

First: Cc1ccnc(C2(C#N)CCN(Cc3cc4c(c5ncccc35)CN(C3CCCCC3O)C4=O)CC2)c1 (stereo not shown) [Example 148, 1-{[8-(2-hydroxycyclohexyl)-7-oxo-8,9-dihydro-7H-pyrrolo[3,4-h]quinolin-5-yl]methyl}-4-(4-methylpyridin-2-yl)piperidine-4-carbonitrile]
Second: COc1cccc(C2(C#N)CCN(Cc3cc4c(c5ncccc35)CN([C@H]3CCCC[C@@H]3O)C4=O)CC2)n1 [Example 154, 1-({8-[(1S,2S)-2-hydroxycyclohexyl]-7-oxo-8,9-dihydro-7H-pyrrolo[3,4-h]quinolin-5-yl}methyl)-4-(6-methoxypyridin-2-yl)piperidine-4-carbonitrile]
The EC50 of the first is 4-fold lower: 4.7 nM for the first, 19 nM for the second. The first is the more potent here.

Compared with C[C@@H]1c2c(cc(CN3CCC(F)(c4ccccn4)CC3)c3cccnc23)C(=O)N1[C@H]1CCCC[C@@H]1O [Example 153, (9R)-5-[(4-fluoro-4-pyridin-2-ylpiperidin-1-yl)methyl]-8-[(1S,2S)-2-hydroxycyclohexyl]-9-methyl-8,9-dihydro-7H-pyrrolo[3,4-h]quinolin-7-one], CC1c2c(cc(CN3CCN(c4cnn(C)c4)CC3)c3cccnc23)C(=O)N1C1CCCCC1O (stereo not shown) [Example 158, 8-(2-hydroxycyclohexyl)-9-methyl-5-{[4-(1-methyl-1H-pyrazol-4-yl)piperazin-1-yl]methyl}-8,9-dihydro-7H-pyrrolo[3,4-h]quinolin-7-one] is 8.8-fold higher in EC50: 8 nM for the first, 70 nM for the second.

Going from Cn1cc(N2CCN(Cc3cc4c(c5ncccc35)CN([C@H]3CCCC[C@@H]3O)C4=O)CC2)cn1 [Example 157, 8-[(1S,2S)-2-hydroxycyclohexyl]-5-{[4-(1-methyl-1H-pyrazol-4-yl)piperazin-1-yl]methyl}-8,9-dihydro-7H-pyrrolo[3,4-h]quinolin-7-one] to O=C1c2cc(CN3CCN(c4ccncc4)CC3)c3cccnc3c2CN1C1CCCCC1O (stereo not shown) [Example 160, 8-(2-hydroxycyclohexyl)-5-[(4-pyridin-4-ylpiperazin-1-yl)methyl]-8,9-dihydro-7H-pyrrolo[3,4-h]quinolin-7-one], the EC50 rises from 42 nM to 110 nM (2.6-fold). The first is the more potent here.
